Laboratory results from US10167262B2, “Herbicidal substituted 3-arylpyrazoles” (FMC CORPORATION, priority 2014, dated 2019).

Assays:
Format in all cases: in vivo
corn (Zea mays) = experiment: Test A pre-/postemergence greenhouse herbicide test, visual injury rating 0-100
How it was run: (§1)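 Visual injury versus untreated controls, scored about 10 days after treatment on a 0 to 100 scale (0 = no effect, 100 = complete control). Applications were preemergence directed soil spray plus postemergence spray at one- to two-leaf stage, 2 to 10 cm plants.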

[1] = test system: velvetleaf (Abutilon theophrasti); experiment: as above
How it was run: as §1

[2] = test system: pigweed (Amaranthus retroflexus); experiment: as above
How it was run: as §1

[3] = test system: large (Lg) crabgrass (Digitaria sanguinalis); experiment: as above
How it was run: as §1

[4] = test system: wheat (Triticum aestivum); experiment: as above
How it was run: as §1

[5] = test system: giant foxtail (Setaria faberii); experiment: as above
How it was run: as §1

[6] = test system: morningglory (Ipomoea spp.); experiment: as above
How it was run: as §1

[7] = test system: barnyardgrass (Echinochloa crus-galli); experiment: as above
How it was run: as §1

[8] = test system: sedge, umbrella (small-flower umbrella sedge, Cyperus difformis); experiment: Test B flooded paddy test, plant response rating 0-100; settings: Flood, 250 g ai/ha; scale 0 to 100 (0 no effect, 100 complete control); 13 to 15 days
How it was run: (§2)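 Greenhouse pots flooded to 3 cm above soil at time of treatment received compound via the water, which stayed at that level.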

[9] = test system: ducksalad (Heteranthera limosa); experiment: as above; settings: Flood, 250 g ai/ha; scale 0 to 100 (0 no effect, 100 complete control); 13 to 15 days
How it was run: as §2

rice (Oryza sativa) = experiment: as above; settings: Flood, 250 g ai/ha; scale 0 to 100 (0 no effect, 100 complete control); 13 to 15 days
How it was run: as §2

[10] = test system: barnyardgrass (Echinochloa crus-galli); experiment: as above; settings: Flood, 250 g ai/ha; scale 0 to 100 (0 no effect, 100 complete control); 13 to 15 days
How it was run: as §2

Structure (SMILES)	Plant response rating (0 to 100 scale), Corn (corn (Zea mays); Postemergence, 125 g ai/ha)	Plant response rating (0 to 100 scale), Corn (corn (Zea mays); Postemergence, 500 g ai/ha)	Corn plant response rating (0 = no effect, 100 = complete control) (corn (Zea mays); Preemergence, 125 g ai/ha)	Plant response rating (0 to 100 scale), Corn (corn (Zea mays); Preemergence, 500 g ai/ha)	Plant response rating (0 to 100 scale), Velvetleaf ([1]; Postemergence, 125 g ai/ha)	Plant response rating (0 to 100 scale), Velvetleaf ([1]; Postemergence, 500 g ai/ha)	Velvetleaf plant response rating (0 = no effect, 100 = complete control) ([1]; Preemergence, 125 g ai/ha)	Plant response rating (0 to 100 scale), Velvetleaf ([1]; Preemergence, 500 g ai/ha)	Plant response rating (0 to 100 scale), Pigweed ([2]; Postemergence, 125 g ai/ha)	Plant response rating (0 to 100 scale), Pigweed ([2]; Postemergence, 500 g ai/ha)	Pigweed plant response rating (0 = no effect, 100 = complete control) ([2]; Preemergence, 125 g ai/ha)	Plant response rating (0 to 100 scale), Pigweed ([2]; Preemergence, 500 g ai/ha)	Plant response rating (0 to 100 scale), Crabgrass, Large ([3]; Postemergence, 125 g ai/ha)	Plant response rating (0 to 100 scale), Crabgrass, Large ([3]; Postemergence, 500 g ai/ha)	Plant response rating (0 to 100 scale), Crabgrass, Large ([3]; Preemergence, 500 g ai/ha)	Plant response rating (0 to 100 scale), Wheat ([4]; Postemergence, 125 g ai/ha)	Plant response rating, Sedge, Umbrella [8]	Plant response rating, Ducksalad [9]	Plant response rating, Rice (rice (Oryza sativa))	Plant response rating, Barnyardgrass [10]	also measured
O=C(c1ccccc1)c1cn(CC2CC2)nc1-c1cc(Cl)cc(Cl)c1 [Compound 41]	0	0	0	0	40	80	0	60	30	60	0	60	0	0	0	0	30	0	0	0	Crabgrass, Large plant response rating (0 = no effect, 100 = complete control) ([3]; Preemergence, 125 g ai/ha): 0; Plant response rating (0 to 100 scale), Wheat ([4]; Postemergence, 500 g ai/ha): 0; Wheat plant response rating (0 = no effect, 100 = complete control) ([4]; Preemergence, 125 g ai/ha): 0; Plant response rating (0 to 100 scale), Wheat ([4]; Preemergence, 500 g ai/ha): 0; Plant response rating (0 to 100 scale), Foxtail, Giant ([5]; Postemergence, 125 g ai/ha): 0; Plant response rating (0 to 100 scale), Foxtail, Giant ([5]; Postemergence, 500 g ai/ha): 0; Foxtail, Giant plant response rating (0 = no effect, 100 = complete control) ([5]; Preemergence, 125 g ai/ha): 0; Plant response rating (0 to 100 scale), Foxtail, Giant ([5]; Preemergence, 500 g ai/ha): 0; Plant response rating (0 to 100 scale), Morningglory ([6]; Postemergence, 125 g ai/ha): 0; Plant response rating (0 to 100 scale), Morningglory ([6]; Postemergence, 500 g ai/ha): 0; Morningglory plant response rating (0 = no effect, 100 = complete control) ([6]; Preemergence, 125 g ai/ha): 0; Plant response rating (0 to 100 scale), Morningglory ([6]; Preemergence, 500 g ai/ha): 0; Plant response rating (0 to 100 scale), Barnyardgrass ([7]; Postemergence, 125 g ai/ha): 0; Plant response rating (0 to 100 scale), Barnyardgrass ([7]; Postemergence, 500 g ai/ha): 0; Barnyardgrass plant response rating (0 = no effect, 100 = complete control) ([7]; Preemergence, 125 g ai/ha): 0; Plant response rating (0 to 100 scale), Barnyardgrass ([7]; Preemergence, 500 g ai/ha): 0
CCn1cc(C(=O)c2cccnc2)c(-c2cc(Cl)cc(Cl)c2)n1 [Compound 7]	0	0	0	0	50	70	0	50	40	70	20	60	0	0	0	0	0	0	0	0	Crabgrass, Large plant response rating (0 = no effect, 100 = complete control) ([3]; Preemergence, 125 g ai/ha): 0; Plant response rating (0 to 100 scale), Wheat ([4]; Postemergence, 500 g ai/ha): 0; Wheat plant response rating (0 = no effect, 100 = complete control) ([4]; Preemergence, 125 g ai/ha): 0; Plant response rating (0 to 100 scale), Wheat ([4]; Preemergence, 500 g ai/ha): 0; Plant response rating (0 to 100 scale), Foxtail, Giant ([5]; Postemergence, 125 g ai/ha): 0; Plant response rating (0 to 100 scale), Foxtail, Giant ([5]; Postemergence, 500 g ai/ha): 0; Foxtail, Giant plant response rating (0 = no effect, 100 = complete control) ([5]; Preemergence, 125 g ai/ha): 0; Plant response rating (0 to 100 scale), Foxtail, Giant ([5]; Preemergence, 500 g ai/ha): 0; Plant response rating (0 to 100 scale), Morningglory ([6]; Postemergence, 125 g ai/ha): 0; Plant response rating (0 to 100 scale), Morningglory ([6]; Postemergence, 500 g ai/ha): 0; Morningglory plant response rating (0 = no effect, 100 = complete control) ([6]; Preemergence, 125 g ai/ha): 0; Plant response rating (0 to 100 scale), Morningglory ([6]; Preemergence, 500 g ai/ha): 0; Plant response rating (0 to 100 scale), Barnyardgrass ([7]; Postemergence, 125 g ai/ha): 0; Plant response rating (0 to 100 scale), Barnyardgrass ([7]; Postemergence, 500 g ai/ha): 0; Barnyardgrass plant response rating (0 = no effect, 100 = complete control) ([7]; Preemergence, 125 g ai/ha): 0; Plant response rating (0 to 100 scale), Barnyardgrass ([7]; Preemergence, 500 g ai/ha): 0
O=C(c1cncc(F)c1)c1c[nH]nc1-c1cc(F)cc(F)c1 [Compound 23]	0	0	0	0	0	40	60	90	50	60	70	100	0	0	0	0	0	0	0	0	Plant response rating (0 to 100 scale), Wheat ([4]; Postemergence, 500 g ai/ha): 0; Wheat plant response rating (0 = no effect, 100 = complete control) ([4]; Preemergence, 125 g ai/ha): 0; Plant response rating (0 to 100 scale), Wheat ([4]; Preemergence, 500 g ai/ha): 0; Plant response rating (0 to 100 scale), Foxtail, Giant ([5]; Postemergence, 125 g ai/ha): 0; Plant response rating (0 to 100 scale), Foxtail, Giant ([5]; Postemergence, 500 g ai/ha): 0; Foxtail, Giant plant response rating (0 = no effect, 100 = complete control) ([5]; Preemergence, 125 g ai/ha): 0; Plant response rating (0 to 100 scale), Foxtail, Giant ([5]; Preemergence, 500 g ai/ha): 0; Plant response rating (0 to 100 scale), Morningglory ([6]; Postemergence, 125 g ai/ha): 0; Plant response rating (0 to 100 scale), Morningglory ([6]; Postemergence, 500 g ai/ha): 0; Morningglory plant response rating (0 = no effect, 100 = complete control) ([6]; Preemergence, 125 g ai/ha): 0; Plant response rating (0 to 100 scale), Morningglory ([6]; Preemergence, 500 g ai/ha): 0; Plant response rating (0 to 100 scale), Barnyardgrass ([7]; Postemergence, 125 g ai/ha): 0; Plant response rating (0 to 100 scale), Barnyardgrass ([7]; Postemergence, 500 g ai/ha): 0; Barnyardgrass plant response rating (0 = no effect, 100 = complete control) ([7]; Preemergence, 125 g ai/ha): 0; Plant response rating (0 to 100 scale), Barnyardgrass ([7]; Preemergence, 500 g ai/ha): 0
Clc1ccc(NN=C(c2ccccc2)c2c[nH]nc2-c2cc(Cl)cc(Cl)c2)cc1 [Compound 65]																	0	0	0	0	Plant response rating (0 to 100 scale), Corn (corn (Zea mays); Postemergence, 1000 g ai/ha): 0; Plant response rating (0 to 100 scale), Corn (corn (Zea mays); Preemergence, 1000 g ai/ha): 0; Plant response rating (0 to 100 scale), Velvetleaf ([1]; Postemergence, 1000 g ai/ha): 90; Plant response rating (0 to 100 scale), Velvetleaf ([1]; Preemergence, 1000 g ai/ha): 80; Plant response rating (0 to 100 scale), Pigweed ([2]; Postemergence, 1000 g ai/ha): 90; Plant response rating (0 to 100 scale), Pigweed ([2]; Preemergence, 1000 g ai/ha): 80; Plant response rating (0 to 100 scale), Crabgrass, Large ([3]; Postemergence, 1000 g ai/ha): 0; Plant response rating (0 to 100 scale), Crabgrass, Large ([3]; Preemergence, 1000 g ai/ha): 0; Plant response rating (0 to 100 scale), Wheat ([4]; Postemergence, 1000 g ai/ha): 0; Plant response rating (0 to 100 scale), Wheat ([4]; Preemergence, 1000 g ai/ha): 0; Plant response rating (0 to 100 scale), Foxtail, Giant ([5]; Postemergence, 1000 g ai/ha): 0; Plant response rating (0 to 100 scale), Foxtail, Giant ([5]; Preemergence, 1000 g ai/ha): 0; Plant response rating (0 to 100 scale), Morningglory ([6]; Postemergence, 1000 g ai/ha): 30; Plant response rating (0 to 100 scale), Morningglory ([6]; Preemergence, 1000 g ai/ha): 0; Plant response rating (0 to 100 scale), Barnyardgrass ([7]; Postemergence, 1000 g ai/ha): 0; Plant response rating (0 to 100 scale), Barnyardgrass ([7]; Preemergence, 1000 g ai/ha): 0
